Measured values published in patent US8158621B2, “Methods of treating or preventing autoimmune diseases with 2,4-pyrimidinediamine compounds” (Rigel Pharmaceuticals, Inc., priority 2002, dated 2012).

Key:
[1] = system: cultured human mast cells (CHMC); assay: CHMC low cell density IgE activation: tryptase assay; type: cell-based
Method in brief: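 Low-density CHMC assay: donor-adjusted 1000-1500 cells/well, MT buffer, 1 hr 37° C preincubation; anti-IgE stimulus 30 min 37° C versus MT-only controls; supernatant tryptase by substrate, 30 min RT.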

[2] = system: cultured human mast cells (CHMC); assay: CHMC low cell density IgE activation: LTC4 assay; type: cell-based; conditions: anti-IgE activation, LTC4 release
Method: Pellet CHMC cells (980 rpm, 10 min) and resuspend in pre-warmed MT. Add 65 ul of cells to each 96-well plate. Depending on the degranulation activity for each particular CHMC donor, load 1000-1500 cells/well. Mix four times followed by a 1 hr incubation at 37° C. […] Stimulate cells by adding 25 ul of 6× anti-IgE solution to the appropriate plates. Add 25 ul MT to un-stimulated control wells. Mix twice following addition of the anti-IgE. Incubate at 37° C. for 30 minutes. […] Spin plates at 1000 rpm for 10 min to pellet cells. Transfer 25 ul of supernatant to a 96-well black bottom plate and add 100 ul of freshly diluted tryptase substrate solution to each well. Incubate plates at room temperature for 30 min.
Leukotriene C4 (LTC4) is also quantified using an ELISA kit on appropriately diluted supernatant samples (determined empirically for each donor cell population so that the sample measurement falls within the standard curve) following the supplier's instructions.

[3] = system: cultured human mast cells (CHMC); assay: CHMC low cell density ionomycin activation: tryptase assay; type: cell-based
[4] = system: Jurkat cells; assay: Jurkat (T-cell) toxicity, light scatter; type: cell-based, human; conditions: read-out: Toxicity Jurkat Light Scat.
Method: Dilute Jurkat cells to 2×10^5 cells/ml in complete RPMI (10% heat-inactivated fetal bovine serum) media and incubate at 37° C., 5% CO2 for 18 hours. Add 65 ul cells at 7.7×10^5 cells/ml to a 96-well V-bottom plate (TC-treated, Costar) containing 65 ul 2× compound (final vehicle concentration is 0.5% DMSO, 1.5% MeOH). Mix, incubate plates for 18-24 hr at 37° C., 5% CO2. Toxicity was assessed by flow cytometric analysis of cellular light scatter

[5] = system: B-cell line BJAB; assay: BJAB (B-cell) toxicity, light scatter; type: cell-based; conditions: read-out: Toxicity BJAB Light Scat.
Method: The B-cell line BJAB was cultured in log phase in RPMI1640+10% heat-inactivated fetal bovine serum, 1× L-glutamine, 1× penicillin, 1× […] and 1× beta-mercaptoethanol at 37° C., 5% CO2. First, BJABs were harvested, spun and resuspended in culture medium to a concentration of 7.7×10^5 cells/mL. 65 uL cells were mixed with 65 uL compound, in duplicate and in the presence of 0.1% DMSO in a V-bottomed 96-well tissue culture plate. Cells were incubated with compound at various dilutions at 37° C., 5% CO2. Toxicity was assessed by flow cytometric analysis of cellular light scatter.

[6] = system: Human Jurkat T-cells (clone N); assay: Jurkat T-cell activation (anti-TCR, CD69 upregulation); type: cell-based
Method in brief: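 Jurkat cells in RPMI + 5% FBS preincubated with compound 1 h at 37 °C, then stimulated with anti-TCR C305 at 500 ng/ml for 20 h. CD69 surface expression stained with anti-CD69-APC and read by flow cytometry; IC50 versus solvent-only control.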

[7] = system: FcγRI-mediated degranulation; assay: FcγRI-mediated degranulation (anti-human IgG Fab activation); type: cell-based; conditions: cells not primed with IgE, activated with rabbit anti-human IgG Fab fragment
[8] = molecular target: T1, Syk kinase (Homo sapiens, UniProt P43405); assay: Syk kinase biochemical fluorescence polarization assay; conditions: isolated Syk kinase, fluorescence polarization, 4 uM ATP
T1 construct: purchased Upstate, Lake Placid NY

[9] = Mouse Reverse Passive Arthus reaction (RPA reaction); type: in vivo, C57BL/6 mice; conditions: oral, 100 mg/kg
Method in brief: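 C57BL/6 mice dosed with compound before challenge, pretreatment time set by each compound's PK; rabbit anti-OVA IgG (50 μg/mouse) given intradermally, then ovalbumin 20 mg/kg i.v. with 1% Evans blue. Dorsal skin edema and hemorrhage read by dye extravasation at 4 h; purified polyclonal rabbit IgG as control.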

[10] = system: basophil cells (human peripheral blood); assay: Basophil ionomycin activation: histamine release assay; type: cell-based; conditions: basophils, ionomycin activation, histamine release; read-out: Basophils Ionomycin Histamine IC50
Method: The basophil activation assay was carried out using whole human peripheral blood from donors allergic to dust mites with the majority of the red blood cells removed by dextran sedimentation. Human peripheral blood was mixed 1:1 with 3% dextran T500 and RBCs were allowed to settle for 20-25min. The upper fraction was diluted with 3 volumes of D-PBS and cells were spun down for 10 min at 1500 rpm, RT. Supernatant was aspirated and cells were washed in an equal volume MT-buffer. Finally, cells were resuspended in MT-buffer containing 0.5% DMSO in the original blood volume. 80 uL cells were mixed with 20 uL compound in the presence of 0.5% DMSO, in triplicate, in a V-bottom 96-well tissue culture plate. A dose range of 8 compound concentrations was tested resulting in a 10-point dose response curve including maximum (stimulated) and minimum (unstimulated) response. […] The cells were stimulated for 30 minutes at 37° C., 5% CO2. The plate was spun for 10 min at 1500 rpm at room temperature and 80 uL the supernatant was harvested for histamine content analysis using the histamine ELISA kit supplied by Immunotech. The ELISA was performed according to supplier's instructions.
Assays for ionomycin-induced basophil cell degranulation were carried out as described for the Basophil IgE or Dustmite Activation Assay (Section 7.5.5, supra), with the exception that following incubation with compound, cells were stimulated with 20 μl of 2 μM ionomycin.

[11] = system: IgE-induced degranulation of tissue mast cells; assay: Mouse model of passive cutaneous anaphylaxis (PCA); type: in vivo; conditions: oral route in a PEG-based formulation (data not shown)
Method: This model provides a direct measure of IgE-induced degranulation of tissue mast cells. In this model, IgE primed animals are exposed to an allergen challenge, and the change in permeability of dermal vasculature that results from histamine release from mast cells is measured by change in the amount of dye leakage into surrounding tissue. Inhibition of mediator release by compounds that modulate mast cell degranulation is easily measured by extracting the dye from the tissue.
In the PCA assay mice are passively sensitized by intradermal injection with anti-dinitrophenol (DNP) IgE antibodies (Day −1). At predetermined times animals are treated with the test agent (Day 0). The modulatory effect of the agent on cutaneous mast cell degranulation is measured following intravenous injection of DNP conjugated to human serum albumin (HSA-DNP), together with Evans blue dye. The resulting cross-linking of the IgE receptor and subsequent mast cell degranulation-induced increase in vascular permeability is determined by measuring the amount of dye extravasation into the tissue. Dye is extracted from the tissue by formamide, and the absorbance of this extract is read at 620 nm.

[12] = Sheep model of allergic asthma; type: in vivo
Method: In the sheep model of allergic asthma, sheep are administered aerosols of test article via an endotracheal tube, followed by an aerosol challenge with antigen extracted from the roundworm, Ascaris suum, to which the sheep are naturally allergic. Allergen challenge leads to direct bronchoconstriction (both EAR and LAR) and a persistent non-specific AHR. These three characteristics are similar to those seen in human allergic asthmatics. The activity of the test agent is determined by changes in the lung resistance (RL), which is calculated from measurements of transpulmonary pressure, flow, and respiratory volume. […] The LAR is a less pronounced increase in RL, which starts approximately 5-6 hours following allergen challenge and is resolved by 8 hours post-challenge. Twenty-four hours after the challenge, a dose response to carbachol is measured to determine the AHR, which is expressed as the dose of carbachol required to increase RL by 400% over baseline. (This measurement is referred to as the provocative concentration of carbachol that elicits a 400% increase in RL over baseline (PC400). The data are compared to historical control data for the same individual when administered a saline control aerosol and challenged with Ascaris suum.

[13] = system: Primary T-cells; assay: Primary T-cell cytokine production (αCD3/αCD28): IL-2; type: cell-based, human; conditions: read-out: 1° T-Cell IL2 IC50
Method: 2E8-4E8 PBMC or proliferating T cells grown in rIL-2 from healthy human donors were suspended in PBS were spun down (1500 rpm, 8-10 minutes) and resuspended in 100 ml RPMI Complete media (1% Pen-Strep, 1% L-Glutamine, 10 mM HEPES). The cells were plated in T175 flasks (37° C., 5% CO2) and monocytes were allowed to adhere for 2-3 hours. After monocyte attachment, non-adherent cells were harvested, counted by hemocytometer, washed several times with PBS then resuspended in Yssels Complete Media (Modified IMDM Media with 1% Human AB Serum, 1% Pen-Strep, 1% L-Glutamine, 10 mM HEPES) at […]. 90 uL of the cell dilution were then added to compounds diluted to 2× in Yssel's media and incubated for 30 minutes at 37° C. (5% CO2). After this preincubation step the compound/cell mixture was transferred to stimulation plates, as described below.
Stimulation plates were prepared by coating 96 well plates with 5 μg/ml αCD3 (BD PharMingen, Catalog #555336)+10 μg/ml αCD28 (Beckman Coulter, Catalog #IM1376) in PBS (no Ca^2+/Mg^2+) at 37° C. (5% CO2) for at 3-5 hours. After incubation with the stimulation antibodies, the cocktail was removed and the plates washed 3 times with PBS prior to addition of the primary T cell/compound mixture.
The compound/cell mixture was transferred to the stimulation plates and incubated for 18 hr at 37° C. (5% CO2). After the cell stimulation, ˜150 μl supernatant were transferred from each well into 96-well filter plates (Coming PVDF Filter Plates) spun down (2000 rpm, 2-3 minutes) and either used immediately for ELISA or LUMINEX measurements or frozen down at −80° C. for future use.
IL-2 ELISAs were performed using the Quantikine Human IL-2 ELISA kit (R&D Systems, Catalog # D2050) as described by the manufacturer and absorption was measured on a spectrophotometer at 450 nm wavelength. Blank values were substracted and absorbances were converted to pg/mL based on the standard curve.
Luminex immunoassay multiplexing for TNF, IL-2, GMSCF, IL-4 and IFNg was performed essentially as described by the manufacturer (Upstate Biotechnology). Essentially 50 uL of sample was diluted into 50 uL assay diluent and 50 uL incubation buffer, then incubated with 100 uL of the diluted detection antibody for 1 hr at RT in the dark. The filter plate was washed 2× in Wash Buffer, then incubated with 100 uL of the diluted secondary reagent (SAV-RPE) for 30 min at RT in the dark. Finally the plates were washed 3 times and bead identification and RPE fluorescent measured by the Luminex instrument.
Varied concentrations of compound were compared to solvent only to determine the inhibition of T-cell activation IC50 of each compound.

[14] = Low Density CHMC, anti-IgE activation, tryptase release, read-out: CHMC anti-IgE Tryptase IC50
[15] = Low Density CHMC, ionomycin activation, tryptase release, read-out: CHMC Ionomycin Tryptase IC50

| SMILES | IC50 [1, 14] | IC50 [2] | IC50 [3, 15] | IC50 [4] | IC50 [5] | IC50 [6] | IC50 [8] | further results |
| --- | --- | --- | --- | --- | --- | --- | --- | --- |
| CC(=O)Oc1cccc(Nc2ncc(F)c(Nc3cccc(OC(C)=O)c3)n2)c1 [Compound R926387] | 650 nM | 700 nM | > 10000 nM | > 10000 nM | > 10000 nM | 3850 nM |  |  |
| Cc1cnc(Nc2cccc(O)c2)nc1Nc1cccc(O)c1 [Compound R926248] | 900 nM | 760 nM | > 10000 nM | > 10000 nM | > 10000 nM | 1540 nM |  |  |
| Fc1cnc(Nc2ccc3cn[nH]c3c2)nc1Nc1ccc(Cl)c(Cl)c1 [Compound R935372] |  |  |  |  |  | 30700 nM | 205 nM | inhibition of FcγRI-mediated degranulation [7]: inhibit FcγRI-mediated degranulation; % inhibition to vehicle control Edema Size ± SEM ([9]; pretreatment time 0.5 hrs): −0.6 ± 6.2%; Plasma Concentration ± SEM (ng/ml) Exposure = Pretreatment Time + 4 hours ([9]; pretreatment time 0.5 hrs + 4 hours): 0.6 ± 1 ng/mL; % inhibition to vehicle control Edema Size ± SEM ([9]; pretreatment time 1 hrs): 23.5 ± 7.4%; Plasma Concentration ± SEM (ng/ml) Exposure = Pretreatment Time + 4 hours ([9]; pretreatment time 1 hrs + 4 hours): 4.2 ± 4 ng/mL; % inhibition to vehicle control Edema Size ± SEM ([9]; pretreatment time 2 hrs): −4.4 ± 17.7%; Plasma Concentration ± SEM (ng/ml) Exposure = Pretreatment Time + 4 hours ([9]; pretreatment time 2 hrs + 4 hours): 52.65 ± 39 ng/mL |
| Cc1cc(Nc2ncc(F)c(Nc3ccc4c(c3)NC(=O)C(F)(F)O4)n2)cc(Cl)c1O [Compound R926971] |  |  |  |  |  |  | 8 nM | IC50 ([1]; low cell density, read-out: CHMC anti-IgE Tryptase): 34 nM; IC50 ([3]; low cell density, read-out: CHMC Ionomycin Tryptase): > 10000 nM; inhibition of FcγRI-mediated degranulation [7]: inhibit FcγRI-mediated degranulation |
| Oc1cccc(Nc2ccnc(Nc3cccc(O)c3)n2)c1 [Compound R926249] | 500 nM | 250 nM | > 10000 nM | > 10000 nM | > 10000 nM | 954 nM |  |  |
| Oc1cccc(Nc2ncc(Br)c(Nc3cccc(O)c3)n2)c1 [Compound R925778] | 225 nM | 180 nM | > 10000 nM | > 10000 nM | > 10000 nM | 3400 nM |  |  |
| CNC(=O)COc1cccc(Nc2ncc(C(F)(F)F)c(Nc3cccc(O)c3)n2)c1 [Compound R926742] |  |  |  |  |  |  | 76 nM | IC50 [10]: > 10000 nM; PCA response [11]: able to inhibit the PCA response; EAR ([12]; administered in an aqueous suspension): failed to inhibit; LAR and AHR ([12]; dose, pretreatment and vehicle per compound as in TABLE 5): blocked; IC50 [13]: 717 nM |
| Oc1cccc(Nc2nc(Nc3ccc4c(c3)OCCO4)ncc2Br)c1 [Compound R925797] | 850 nM | 280 nM | > 10000 nM | > 10000 nM | > 10000 nM | 1510 nM |  |  |
